# What was measured:
# rice = assay: Test B flood test rice; type: in vivo, Oryza sativa
# Procedure, shortened: (§1)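 Flood test on plants grown to the 2-leaf stage; treated plants kept in greenhouse twelve to sixteen days, then visually rated against controls on a 0 (no effect) to 10 (complete control) scale.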
# soybean = assay: Test B pre/postemergence soybean; type: in vivo, Glycine max
# Procedure, shortened: (§2)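 Response is a visual 0-to-10 score relative to untreated plants, where 0 means no effect and 10 means complete control, taken twelve to sixteen days after application. Treatments went onto soil at planting and onto foliage of 1- to 4-leaf plants, using a surfactant-containing non-phytotoxic solvent.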
# rape = assay: Test B pre/postemergence rape; type: in vivo, Brassica napus
# Procedure, shortened: as §2
# pigweed = assay: Test B pre/postemergence pigweed; type: in vivo, Amaranthus retroflexus
# Procedure, shortened: as §2
# smallflower flatsedge = assay: Test B flood test smallflower flatsedge; type: in vivo, Cyperus difformis
# Procedure, shortened: as §1
# giant foxtail = assay: Test B pre/postemergence giant foxtail; type: in vivo, Setaria faberii
# Procedure, shortened: as §2
# duck salad = assay: Test B flood test duck salad; type: in vivo, Heteranthera limosa
# Procedure, shortened: as §1
# sugar beet = assay: Test B pre/postemergence sugar beet; type: in vivo, Beta vulgaris
# Procedure, shortened: as §2
# wheat = assay: Test B pre/postemergence wheat; type: in vivo, Triticum aestivum
# Procedure, shortened: as §2
# bedstraw = assay: Test B pre/postemergence bedstraw; type: in vivo, Galium aparine
# Procedure, shortened: as §2
# cocklebur = assay: Test B pre/postemergence cocklebur; type: in vivo, Xanthium strumarium
# Procedure, shortened: as §2
# blackgrass = assay: Test B pre/postemergence blackgrass; type: in vivo, Alopecurus myosuroides
# Procedure, shortened: as §2
# crabgrass = assay: Test B pre/postemergence crabgrass; type: in vivo, Digitaria sanguinalis
# Procedure, shortened: as §2
# surinam grass = assay: Test B pre/postemergence surinam grass; type: in vivo, Brachiaria decumbens
# Procedure, shortened: as §2
# purple nutsedge = assay: Test B pre/postemergence purple nutsedge; type: in vivo, Cyperus rotundus
# Procedure, shortened: as §2
# wild oat = assay: Test B pre/postemergence wild oat; type: in vivo, Avena fatua
# Procedure, shortened: as §2
# bamyardgrass = assay: Test B flood test barnyardgrass; type: in vivo, Echinochloa crus-galli
# Procedure, shortened: as §1
# morningglory = assay: Test B pre/postemergence morningglory; type: in vivo, Ipomoea hederacea
# Procedure, shortened: as §2
# velvetleaf = assay: Test B pre/postemergence velvetleaf; type: in vivo, Abutilon theophrasti
# Procedure, shortened: as §2
# corn = assay: Test B pre/postemergence corn; type: in vivo, Zea mays
# Procedure, shortened: as §2
# [1] = Rate 62 g/ha, flood test species, Pre-emergence, visual evaluation after twelve to sixteen days
# [2] = Rate 125 g/ha, under heading Pre-emergence, flood test species, visual evaluation after twelve to sixteen days
# [3] = Rate 250 g/ha, Pre-emergence (flood test species), scale 0 to 10, 0 is no effect, 10 is complete control
# [4] = Rate 500 g/ha, Pre-emergence section of Table B, 0 to 10 scale (0 no effect, 10 complete control)
# [5] = Postemergence, Rate 125 g/ha, scale 0 to 10, 0 is no effect, 10 is complete control
# [6] = Postemergence, Rate 500 g/ha, scale 0 to 10, 0 is no effect, 10 is complete control
# [7] = Preemergence, Rate 62 g/ha, scale of 0 to 10 where 0 is no effect and 10 is complete control
# [8] = Preemergence, Rate 125 g/ha, scale 0 to 10, 0 is no effect, 10 is complete control
# [9] = Preemergence, Rate 500 g/ha, scale of 0 to 10 where 0 is no effect and 10 is complete control
# [10] = Rate 62 g/ha, Postemergence, scale 0 to 10 (0 no effect, 10 complete control)
# [11] = Preemergence, Rate 250 g/ha, scale 0 to 10, 0 is no effect, 10 is complete control
# [12] = Preemergence, Rate 500 g/ha, scale 0 to 10, 0 is no effect, 10 is complete control
# [13] = Postemergence, Rate 250 g/ha, scale 0 to 10
smiles,measurement,setting,value
CC(C)N(C(=O)n1oc(=O)n(CC2=NCCCO2)c1=O)c1ccccc1 [Compound 494],"Plant response rating, Rice (0 to 10 scale, 0 is no effect, 10 is complete control)",rice; [1],0
same,"Rice plant response rating (0 to 10 scale, 0 is no effect, 10 is complete control)",rice; [2],0
same,Rice plant response rating,rice; [3],0
same,Rice plant response rating,rice; [4],0
same,Soybean plant response rating,soybean; [5],0
same,"Plant response rating, Soybean",soybean; [6],1
same,"Plant response rating, Soybean",soybean; [7],0
same,Soybean plant response rating,soybean; [8],1
same,Soybean plant response rating,soybean; [9],1
same,Soybean plant response rating,soybean; [10],0
same,Rape plant response rating,rape; [5],0
same,"Plant response rating, Rape",rape; [6],0
same,"Plant response rating, Rape",rape; [7],0
same,Rape plant response rating,rape; [8],0
same,Rape plant response rating,rape; [9],0
same,Rape plant response rating,rape; [10],0
same,Redroot pigweed plant response rating,pigweed; [5],0
same,"Plant response rating, Redroot pigweed",pigweed; [6],0
same,"Plant response rating, Redroot pigweed",pigweed; [7],0
same,Redroot pigweed plant response rating,pigweed; [8],0
same,Redroot pigweed plant response rating,pigweed; [9],0
same,Redroot pigweed plant response rating,pigweed; [10],0
same,"Plant response rating, S. Flatsedge (0 to 10 scale, 0 is no effect, 10 is complete control)",smallflower flatsedge; [1],0
same,"S. Flatsedge plant response rating (0 to 10 scale, 0 is no effect, 10 is complete control)",smallflower flatsedge; [2],0
same,S. Flatsedge plant response rating,smallflower flatsedge; [3],0
same,S. Flatsedge plant response rating,smallflower flatsedge; [4],0
same,Giant foxtail plant response rating,giant foxtail; [5],0
same,"Plant response rating, Giant foxtail",giant foxtail; [6],0
same,"Plant response rating, Giant foxtail",giant foxtail; [7],0
same,Giant foxtail plant response rating,giant foxtail; [8],0
same,Giant foxtail plant response rating,giant foxtail; [9],0
same,Giant foxtail plant response rating,giant foxtail; [10],0
same,"Plant response rating, Ducksalad (0 to 10 scale, 0 is no effect, 10 is complete control)",duck salad; [1],0
same,"Ducksalad plant response rating (0 to 10 scale, 0 is no effect, 10 is complete control)",duck salad; [2],0
same,Ducksalad plant response rating,duck salad; [3],0
same,Ducksalad plant response rating,duck salad; [4],0
same,Sugarbeets plant response rating,sugar beet; [5],0
same,"Plant response rating, Sugarbeets",sugar beet; [6],0
same,"Plant response rating, Sugarbeets",sugar beet; [7],0
same,Sugarbeets plant response rating,sugar beet; [8],0
same,Sugarbeets plant response rating,sugar beet; [9],0
same,Sugarbeets plant response rating,sugar beet; [10],0
same,Wheat plant response rating,wheat; [5],0
same,"Plant response rating, Wheat",wheat; [6],0
same,"Plant response rating, Wheat",wheat; [7],0
same,Wheat plant response rating,wheat; [8],0
same,Wheat plant response rating,wheat; [9],0
same,Wheat plant response rating,wheat; [10],0
same,"Plant response rating, Bedstraw",bedstraw; [7],0
same,Bedstraw plant response rating,bedstraw; [8],0
same,Bedstraw plant response rating,bedstraw; [11],0
same,Bedstraw plant response rating,bedstraw; [12],0
same,Bedstraw plant response rating,bedstraw; [10],0
same,Cocklebur plant response rating,cocklebur; [5],0
same,Cocklebur plant response rating,cocklebur; [13],0
same,"Plant response rating, Cocklebur",cocklebur; [6],0
same,"Plant response rating, Cocklebur",cocklebur; [7],0
same,Cocklebur plant response rating,cocklebur; [8],0
same,Cocklebur plant response rating,cocklebur; [11],0
same,Cocklebur plant response rating,cocklebur; [9],0
same,Cocklebur plant response rating,cocklebur; [10],0
same,Blackgrass plant response rating,blackgrass; [5],0
same,Blackgrass plant response rating,blackgrass; [13],0
same,"Plant response rating, Blackgrass",blackgrass; [6],0
same,"Plant response rating, Blackgrass",blackgrass; [7],0
same,Blackgrass plant response rating,blackgrass; [8],0
same,Blackgrass plant response rating,blackgrass; [11],0
same,Blackgrass plant response rating,blackgrass; [9],0
same,Blackgrass plant response rating,blackgrass; [10],0
same,Crabgrass plant response rating,crabgrass; [5],0
same,"Plant response rating, Crabgrass",crabgrass; [7],0
same,Crabgrass plant response rating,crabgrass; [8],0
same,Crabgrass plant response rating,crabgrass; [9],0
same,Crabgrass plant response rating,crabgrass; [10],0
same,B. signalgrass plant response rating,surinam grass; [5],0
same,B. signalgrass plant response rating,"surinam grass; Postemergence, Rate 250 g/ha, scale 0 to 10, 0 no effect, 10 complete control",0
same,"Plant response rating, B. signalgrass",surinam grass; [6],0
same,"Plant response rating, B. signalgrass",surinam grass; [7],0
same,B. signalgrass plant response rating,surinam grass; [8],0
same,B. signalgrass plant response rating,surinam grass; [11],0
same,B. signalgrass plant response rating,surinam grass; [12],0
same,B. signalgrass plant response rating,surinam grass; [10],0
same,Nutsedge plant response rating,purple nutsedge; [5],0
same,"Plant response rating, Nutsedge",purple nutsedge; [6],0
same,"Plant response rating, Nutsedge",purple nutsedge; [7],0
same,Nutsedge plant response rating,purple nutsedge; [8],0
same,Nutsedge plant response rating,purple nutsedge; [9],0
same,Nutsedge plant response rating,purple nutsedge; [10],0
same,Wild oats plant response rating,wild oat; [5],0
same,"Plant response rating, Wild oats",wild oat; [6],0
same,"Plant response rating, Wild oats",wild oat; [7],0
same,Wild oats plant response rating,wild oat; [8],0
same,Wild oats plant response rating,wild oat; [9],0
same,Wild oats plant response rating,wild oat; [10],0
same,"Plant response rating, Barnyardgrass (0 to 10 scale, 0 is no effect, 10 is complete control)",bamyardgrass; [1],0
same,"Barnyardgrass plant response rating (0 to 10 scale, 0 is no effect, 10 is complete control)",bamyardgrass; [2],0
same,Barnyardgrass plant response rating,bamyardgrass; [3],0
same,Barnyardgrass plant response rating,bamyardgrass; [4],0
same,Morningglory plant response rating,morningglory; [5],0
same,"Plant response rating, Morningglory",morningglory; [6],0
same,"Plant response rating, Morningglory",morningglory; [7],0
same,Morningglory plant response rating,morningglory; [8],0
same,Morningglory plant response rating,morningglory; [9],0
same,Morningglory plant response rating,morningglory; [10],0
same,Velvetleaf plant response rating,velvetleaf; [5],0
same,"Plant response rating, Velvetleaf",velvetleaf; [6],0
same,"Plant response rating, Velvetleaf",velvetleaf; [7],0
same,Velvetleaf plant response rating,velvetleaf; [8],0
same,Velvetleaf plant response rating,velvetleaf; [9],0
same,Velvetleaf plant response rating,velvetleaf; [10],0
same,Corn plant response rating,corn; [5],0
same,Corn plant response rating,corn; [13],0
same,"Plant response rating, Corn",corn; [6],0
same,"Plant response rating, Corn",corn; [7],0
same,Corn plant response rating,corn; [8],0
same,Corn plant response rating,corn; [9],0
same,Corn plant response rating,corn; [10],0

# From US6737383B1, “Herbicidal oxadiazolidines” (priority 1999, dated 2004)
